Test results published in US20050256034A1, “Dioxolane analogs for improved inter-cellular delivery” (priority 2000, published 2005).
Structures can show the parent of a compound that is named as a salt.

test: 3H-Thymidine Incorporation Assay (24 hr drug, wash, another 48 hr; 72 hr assay); format: cell-based; details: CCRF-CEM, read-out: IC50 in μM (3H-TdR incorporation at 72 hr) CEM/dCK- 24 h, CEM/dCK- (CCRF-CEM deoxycytidine kinase-deficient); 24 h exposure to drug, wash, another 48 hr

SMILES | IC50
N=C(OC[C@H]1OC[C@@H](n2ccc(N)nc2=O)O1)C(Cl)(Cl)Cl [Compound 79, 2,2,2-TRICHLORO-ACETI- MIDIC ACID 4-(4-A- MINO-2-OXO-2H-PYRI- MIDIN-1-YL)-[1,3]DI- OXOLAN-2-YL- METHYL ESTER] | 63 µM
Nc1ccn([C@@H]2CO[C@H](COC(=O)CCCCCNCc3ccccc3)O2)c(=O)n1 [Compound 84, 6-Benzylamino-hexanoic acid 4-(4-amino-2-oxo-2H-pyri-midin-1-yl)-[1,3]di-oxolan-2-ylmethyl ester] | 60 µM

same assay, conditions: MCF7, read-out: IC50 in μM (3H-TdR incorporation at 72 hr) MCF-7 24 h, MCF-7 human breast carcinoma; 24 h exposure to drug, wash, another 48 hr

SMILES | IC50
Nc1ccn([C@@H]2CO[C@H](COCOCc3ccccc3)O2)c(=O)n1 [Compound 56, 4-AMINO-1-(2-BENZYLOXY- METHOXYMETHYL-[1,3]DI- OXOLAN-4-YL)-1H-PYRI- MIDIN-2-ONE] | 2 µM

same assay, conditions: NCI-H460, read-out: IC50 in μM (3H-TdR incorporation at 72 hr) H-460 24 h, H-460 human lung carcinoma; 24 h exposure to drug, wash, another 48 hr

SMILES | IC50
Nc1ccn([C@@H]2CO[C@H](COCOCc3ccccc3)O2)c(=O)n1 [Compound 56, 4-AMINO-1-(2-BENZYLOXY- METHOXYMETHYL-[1,3]DI- OXOLAN-4-YL)-1H-PYRI- MIDIN-2-ONE] | 7 µM
CC(C(=O)OC[C@H]1OC[C@@H](n2ccc(N)nc2=O)O1)c1ccccc1 (stereo partly drawn) [Compound 69, (2S,4S)-2-(2″-METHYL- PHENYLACETOXY)METH- YL-4-CYTOSIN-1′-YL-1,3-DI- OXOLANE] | 0.045 µM

same assay, conditions: NCI-H460, read-out: IC50 in μM (3H-TdR incorporation at 72 hr) H-460 (72 h), H-460 human lung carcinoma; 72 h exposure

SMILES | IC50
CC(=O)OC[C@H]1OC[C@@H](n2ccc(N)nc2=O)O1 [Compound 27] | 0.0053 µM

same assay, conditions: ratio of IC50 CEM/dCK- to IC50 CCRF-CEM, 24 h exposure

SMILES | Factor (Resistance Factor = Ratio of dCK- on Wild-type CCRF-CEM)
CCC(C)(C)OC(C)OC[C@H]1OC[C@@H](n2ccc(N)nc2=O)O1 (mixture of isomers) [Compound 117, 4-AMINO-1-{2-[1-(1,1-DI- METHYL-PROPOXY)-ETH- OXYMETHYL]-[1,3]DI- OXOLAN-4-YL}-1H-PYRI- MIDIN-2-ONE] | 494
Nc1ccn([C@@H]2CO[C@H](COC3CCCCO3)O2)c(=O)n1 (stereo partly shown) [Compound 41, 4-AMINO-1-[2-(TETRA- HYDRO-PYRAN-2-YLOXY- METHYL)-[1,3]DI- OXOLAN-4-YL]-1H-PYRI- MIDIN-2-ONE] | 5
O=C(Nc1ccn([C@@H]2CO[C@H](COC(=O)Oc3ccccc3)O2)c(=O)n1)Oc1ccccc1 [Compound 43, CARBONIC ACID 4-(2-OXO-4-PHENOXY- CARBONYLAMINO-2H-PYRI- MIDIN-1-YL)-[1,3]DI- OXOLAN-2-YLMETH- YL ESTER PHENYL ESTER] | 1,000,000
O=C(Nc1ccn([C@@H]2CO[C@H](CO)O2)c(=O)n1)Oc1ccccc1 [Compound 44, [1-(2-HYDROXYMETHYL-[1,3]DI- OXOLAN-4-YL)-2-OX- O-1,2-DIHYDRO-PYRI- MIDIN-4-YL]-CARBAMIC ACID PHENYL ESTER] | 1,300
CCOC(=O)Nc1ccn([C@@H]2CO[C@H](CO)O2)c(=O)n1 [Compound 45, [1-(2-HYDROXYMETHYL-[1,3]DI- OXOLAN-4-YL)-2-OX- O-1,2-DIHYDRO-PYRI- MIDIN-4-YL]-CARBAMIC ACID ETHYL ESTER] | 63
CCOC(=O)Nc1ccn([C@@H]2CO[C@H](COC(=O)OCC)O2)c(=O)n1 [Compound 47, CARBONIC ACID 4-(4-ETH- OXYCARBONYLAMINO-2-OX- O-2H-PYRIMIDIN-1-YL)-[1,3]DI- OXOLAN-2-YL- METHYL ESTER ETHYL ESTER] | 34
Nc1ccn([C@@H]2CO[C@H](COC(=O)Cc3ccccc3)O2)c(=O)n1 [Compound 52, (2S,4S)-2-PHENYL- ACETOXYMETHYL-4-CYTO- SIN-1′-YL-1,3-DI- OXOLANE] | 400
COc1ccc(OC(=O)Nc2ccn([C@@H]3CO[C@H](COC(=O)Oc4ccc(OC)cc4)O3)c(=O)n2)cc1 [Compound 63, CARBONIC ACID 4-[4-(4-METH- OXY-PHENOXY- CARBONYLAMINO)-2-OX- O-2H-PYRIMIDIN-1-YL]-[1,3]DI- OXOLAN-2-YLMETHYL ESTER 4-METH- OXY-PHENYL ESTER] | 2,778
CCCCC(C)C(=O)OC[C@H]1OC[C@@H](n2ccc(/N=C/N(C)C)nc2=O)O1 (stereo partly drawn) [Compound 64, (2S,4S)-2-(2″-METHYL-HEXANO- ICOXYMETHYL)-4-(4′-NN-DI- METHYLAMINOMETHYLENE-CYTO- SIN-1′-YL)-1,3-DI- OXOLANE] | 2,000
CC(C)OC(=O)OCOC[C@H]1OC[C@@H](n2ccc(N)nc2=O)O1.O=C(O)C(F)(F)F.O=C(O)C(F)(F)F [Compound 68, CARBONIC ACID 4-(4-A- MINO-2-OXO-2H-PYRI- MIDIN-1-YL)-[1,3]DI- OXOLAN-2-YL- METHOXYMETHYL ESTER ISOPROPYL ESTER TRIFLUOROACETIC ACID SALT] | 3,333
N=C(OC[C@H]1OC[C@@H](n2ccc(N)nc2=O)O1)C(Cl)(Cl)Cl [Compound 79, 2,2,2-TRICHLORO-ACETI- MIDIC ACID 4-(4-A- MINO-2-OXO-2H-PYRI- MIDIN-1-YL)-[1,3]DI- OXOLAN-2-YL- METHYL ESTER] | 4,500
COC(=O)CCCC(=O)Nc1ccn([C@@H]2CO[C@H](CO)O2)c(=O)n1 [Compound 81, 4-[1-(2-HYDROXYMETHYL-[1,3]DI- OXOLAN-4-YL)-2-OX- O-1,2-DIHYDRO-PYRI- MIDIN-4-YL- CARBAMOYL]-BUTYRIC ACID METHYL ESTER] | 83
Nc1ccn([C@@H]2CO[C@H](COC(=O)CCCCCNCc3ccccc3)O2)c(=O)n1 [Compound 84, 6-Benzylamino-hexanoic acid 4-(4-amino-2-oxo-2H-pyri-midin-1-yl)-[1,3]di-oxolan-2-ylmethyl ester] | 5,000
Nc1ccn([C@@H]2CO[C@H](CO[C@@H]3O[C@H](CO)[C@@H](O)[C@H]3O)O2)c(=O)n1.O=C(O)C(F)(F)F [Compound 85, 4-AMINO-1-[2-(3,4-DI- HYDROXY-5-HYDROXY- METHYL-TETRA- HYDROFURAN-2-YLOXY- METHYL)-[1,3]DI- OXOLAN-4-YL]-1HPYIMI- DIN-2-ONE, TRIFLUOROACETIC ACID SALT] | 38
O=C(O)C(F)(F)F.O=c1nc(NC/C=C/c2ccccc2)ccn1[C@@H]1CO[C@H](CO)O1 [Compound 89, 1-(2-HYDROXYMETHYL-[1,3]DI- OXOLAN-4-YL)-4-(3-CIN- NAMYL)-1H-PYRI- MIDIN-2-ONE TRIFLUORO-ACETATE SALT] | 40
Nc1ccn([C@@H]2CO[C@H](COC/C=C/c3ccccc3)O2)c(=O)n1.O=C(O)C(F)(F)F [Compound 90, 4-AMINO-1-[2-(3-CIN- NAMYLOXYMETHYL)-[1,3]DI- OXOLAN-4-YL]-1H-PYRI- MIDIN-2-ONE TRIFLUOROACETATE SALT] | 1.5
CC(OC[C@H]1OC[C@@H](n2ccc(N)nc2=O)O1)OC1CCCCC1 (stereo partly shown) [Compound 92, 4-AMINO-1-[2-(1-CYCLO- HEXYLOXY-ETH- OXYMETHYL)-[1,3]DI- OXOLAN-4-YL]-1H-PYRI- MIDIN-2-ONE] | 77
CCCCC(CC)C(=O)Nc1ccn([C@@H]2CO[C@H](CO)O2)c(=O)n1 (stereo partly shown) [Compound 99, 2-ETHYL-HEXANOIC ACID [1-(2-HYDROXYMETHYL-[1,3]DI- OXOLAN-4-YL)-2-OX- O-1,2-DIHYDRO-PYRI- MIDIN-4-YL]-AMIDE] | >20
O=C(Nc1ccn([C@@H]2CO[C@H](COC(=O)C34CC5CC(CC(C5)C3)C4)O2)c(=O)n1)OCc1ccccc1 [Compound 101, ADAMANTANE-1-CARBOXYLIC ACID 4-(4-BENZYL- OXYCARBONYLAMINO-2-OX- O-2H-PYRIMIDIN-1-YL)-[1,3]DI- OXOLAN-2-YLMETHYL ESTER] | 44
O=C(Nc1ccn([C@@H]2CO[C@H](COC(=O)C34CC5CC(CC(C5)C3)C4)O2)c(=O)n1)C12CC3CC(CC(C3)C1)C2 [Compound 102, ADAMANTANE-1-CARBOXYLIC ACID 4-{4-[(ADAMANTANE-1-CAR- BONYL)-AMINO]-2-OX- O-2H-PYRIMIDIN-1-YL}-[1,3]DI- OXOLAN-2-YLMETHYL ESTER] | 27
O=C(Nc1ccn([C@@H]2CO[C@H](COC(=O)Oc3ccc(Cl)cc3)O2)c(=O)n1)Oc1ccc(Cl)cc1 [Compound 103, CARBONIC ACID 4-[4-(4-CHLORO-PHENOXY- CARBONYLAMINO)-2-OX- O-2H-PYRIMIDIN-1-YL]-[1,3]DI- OXOLAN-2-YLMETHYL ESTER 4-CHLORO-PHENYL ESTER] | 4,545
O=C(Nc1ccn([C@@H]2CO[C@H](CO)O2)c(=O)n1)Oc1ccc(Cl)cc1.O=C(O)C(F)(F)F [Compound 104, [1-(2-HYDROXYMETHYL-[1,3]DI- OXOLAN-4-YL)-2-OX- O-1,2-DIHYDRO-PYRI- MIDIN-4-YL]-CARBAMIC ACID 4-CHLORO-PHENYL ESTER TRIFLUOROACETATE SALT] | >476
Nc1ccn([C@@H]2CO[C@H](COC(=O)Oc3ccc(Cl)cc3)O2)c(=O)n1.O=C(O)C(F)(F)F [Compound 105, CARBONIC ACID 4-(4-A- MINO-2-OXO-2H-PYRI- MIDIN-1-YL)-[1,3]DI- OXOLAN-2-YLMETHYL ESTER 4-CHLORO-PHENYL ESTER TRIFLUOROACETATE SALT] | 2 393
O=C(NCc1ccccc1)Nc1ccn([C@@H]2CO[C@H](CO)O2)c(=O)n1 [Compound 108, 1-BENZYL-3-[1-(2-HYDROXY- METHYL-[1,3]DI- OXOLAN-4-YL)-2-OX- O-1,2-DIHYDRO-PYRI- MIDIN-4-YL]-UREA] | >29

same assay, conditions: ratio of IC50 CEM/dCK- to IC50 CCRF-CEM, 24 h exposure; bis trifluoroacetate salt

SMILES | Factor (Resistance Factor = Ratio of dCK- on Wild-type CCRF-CEM)
Nc1ccn([C@@H]2CO[C@H](COC(=O)CCCCCNCc3ccccc3)O2)c(=O)n1 [Compound 83, 6-Benzylamino-hexanoic acid 4-(4-amino-2-oxo-2H-pyri-midin-1-yl)-[1,3]di-oxolan-2-yl-methyl ester bis trifluoroacetate salt] | 4,545
